Reference: patent US20050065166A1, “Substituted pyrimidines” (priority 2001, published 2005)

Row | melting point [°C] | SMILES
1 | 48 | Cc1nc(SCc2ccc(Cl)cc2)nc2c1CCCC2
2 | 127 | Cc1nc([S+]([O-])Cc2ccc(Cl)cc2)nc2c1CCCC2 (stereo not drawn)
3 | 151 | Cc1nc(S(=O)(=O)Cc2ccc(Cl)cc2)nc2c1CCCC2
